Laboratory results as given in patent US5393752A, “Methylpiperazinoazepine compounds, preparation and use thereof” (Therabel Research S.A./N.V., priority 1994, dated 1995).
Read-outs that look alike come from different tables or passages of the source.

Assays:
muscarinergic receptors = test system: muscarinergic receptors; set-up: species or system CFY rat; details: 1.5 nM (3H) QNB, 25° C., pH 7.5, 60 minutes; non-specific binding with 10^-5 M atropin
[1] = biological target: T1, D2 dopaminergic receptors (Rattus norvegicus, UniProt P61169); test: Affinity test, D2 dopaminergic receptors: (3H)-spiperone displacement in rat striatum membranes; set-up: species or system male Wistar rats; details: read-out: Inhibition, % (binding of 3H-spiperone)
T1 construct: The striatum is dissected rapidly and homogenized; from tissue; host or cells: striatum of male Wistar rats, membrane preparation
T1 sequence (P61169 whole entry): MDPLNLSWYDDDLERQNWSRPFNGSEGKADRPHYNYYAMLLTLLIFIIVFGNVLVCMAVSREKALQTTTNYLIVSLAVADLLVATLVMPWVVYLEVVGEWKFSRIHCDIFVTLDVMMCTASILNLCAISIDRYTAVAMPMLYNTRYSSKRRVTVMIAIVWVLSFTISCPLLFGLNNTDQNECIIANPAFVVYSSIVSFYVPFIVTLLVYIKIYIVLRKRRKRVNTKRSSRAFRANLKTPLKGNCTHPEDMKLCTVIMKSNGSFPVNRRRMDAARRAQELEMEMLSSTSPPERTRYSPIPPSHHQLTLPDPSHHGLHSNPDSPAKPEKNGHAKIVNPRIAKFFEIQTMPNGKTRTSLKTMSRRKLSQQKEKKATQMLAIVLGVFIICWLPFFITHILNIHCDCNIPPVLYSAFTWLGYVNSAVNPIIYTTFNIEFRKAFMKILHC
Procedure: Characterization by (^3 H) spiperone displacement test.
The brain of male Wistar rats (200-250 g) is removed. The striatum is dissected rapidly and homogenized into 20 ml iced buffer ([…], pH=7.4, 25° C.) by means of a Teflon homogenizer. The homogenate is centrifuged at 4° C. at 10000 G during 10 minutes, the concentrate is washed two times with iced buffer and recentrifuged. The final concentrate is suspended into iced buffer (50 nM/HCl, pH=7.4) containing […], […] EDTA. After rehomogenization, the suspension is adjusted to 1 mg proteine per ml.
The binding of (^3 H)-spiperone is evaluated onto the following mixture: 200 μl membrane preparation (0.1-0.2 mg proteine), 100 μl (10^-6 M) test substance and […] buffer for a final volume of 1 ml. Control tubes, which are taken as a reference of the nonspecific binding, contain also 1 μM (+) butaclamol. The samples (in threefold) are then incubated with 0.5 nM (^3 H)spiperone at 25° C. for 60 minutes. This step is stopped by a quick vacuum filtration of the suspension through a glass-fiber filter GF/C. The filter is rinsed three times with 5 ml iced buffer.

[2] = Catalepsy Test (extrapyramidal effects); format: in vivo; details: for dose at which catalepsy appears: catalepsy for doses above / cataleptic effect starting from; for cataleptic effect (in words): catalepsy test
Text: See in particular GRAY W. D., OSTERBERG A. C., RAUH C. E., Arch. Int. Pharmacodyn. 134, 198, 1961 and COSTALL B., OLLEY J. E., Neuropharmacology 10, 297, 1971.
This test is representative for the extrapyramidal effects present in numerous neuroleptics (unwanted secondary effect). The compounds of the invention cause very little catalepsy and seem therefore to be free from this unwanted secondary effect. However, some products have shown a slight catalepsy: […]

[3] = Apomorphine Antagonism Test (in vivo), with locomotion and sedative effect; details: examples: "At 20 mg/kg" heads the paragraph
Text: The following results are provided by way of example.

[4] = test substance 100 μl (10^-6 M) in final volume 1 ml, 0.5 nM (3H)spiperone, 25° C., 60 min, vs 1 μM (+)butaclamol
[5] = scale from clozapine (20 mg/g) + to haloperidol (0.63 mg/kg) +++++

Compound	Inhibition, % (binding of 3H QNB) (muscarinergic receptors) [%]	inhibition [1, 4] [%]	Apomorphine antagonism, intensity of activity [3, 5]	other results
CN1CCN(C2=Nc3cccnc3Nc3ccc(Cl)cc32)CC1 [Example 10, 8-chloro-6-(4-methylpiperazin-1-yl)-11H-pyrido(2,3-b)benzo-1,4-diazepine]	62.08	31.5	–	–
CN1CCN(C2=Nc3ccccc3Oc3ncccc32)CC1.O=C(O)/C=C\C(=O)O [Example 4, 5-(4-methylpiperazin-1-yl)pyrido(2,3-b)benzo-1,5-oxazepine maleate]	–	–	–	dose at which catalepsy appears [2]: ≥ 20 mg/kg; cataleptic effect (in words) [2]: slight cataleptic effect
Cc1ccc2c(c1)C(N1CCN(C)CC1)=Nc1cccnc1N2 [Example 11, 6-(4-methylpiperazin-1-yl)-8-methyl-11H-pyrido(2,3-b)benzo-1,4-diazepine]	67.3	24.8	–	–
CN1CCN(C2=Nc3cccnc3N(C=O)c3ccccc32)CC1 [Example 17, 11-formyl-6-(4-methylpiperazin-1-yl)-11H-pyrido(2,3-b)benzo-1,4-diazepine]	43.38	22.8	–	–
O=C(CCCN1CCC(O)(c2ccc(Cl)cc2)CC1)c1ccc(F)cc1 [Haloperidol, reference compound]	–	–	–	Apomorphine antagonism, intensity of activity ([3]; scale from clozapine + to haloperidol (0.63 mg/kg) +++++): +++++
CN1CCN(C2=Nc3cc(Cl)ccc3Oc3ncccc32)CC1.O=C(O)/C=C/C(=O)O [Example 5, 8-chloro-5-(4-methylpiperazin-1-yl)pyrido(2,3-b)benzo-1,5-oxazepine fumarate]	–	–	+	–
CN1CCN(C2=Nc3cccnc3Oc3ccccc32)CC1.O=C(O)/C=C/C(=O)O [Example 7, 6-(4-methylpiperazin-1-yl)pyrido(2,3-b)benzo-1,4-oxazepine fumarate]	–	–	+	–
CN1CCN(C2=Nc3ccccc3Nc3ccncc32)CC1 [Example 1, 11-(4-methylpiperazin-1-yl)-5H-pyrido(4,3-b)benzo-1,5-diazepine]	4.48	–	–	dose at which catalepsy appears [2]: above 40 mg/kg; inhibition [1]: 56.2%
CN1CCN(C2=Nc3cccnc3Sc3ccc(Cl)cc32)CC1.O=C(O)/C=C/C(=O)O [Example 3, 8-chloro-6-(4-methylpiperazin-1-yl)pyrido(2,3-b)benzo-1,4-thiazepine fumarate]	–	–	–	dose at which catalepsy appears [2]: above 40 mg/kg
CN1CCN(C2=Nc3cccnc3Nc3cc(Cl)ccc32)CC1 [Example 12, 9-chloro-6-(4-methylpiperazin-1-yl)-11H-pyrido(2,3-b)benzo-1,4-diazepine]	–	–	+	–
CN1CCN(C2=Nc3cc(Cl)ccc3Nc3ccccc32)CC1 [Clozapine, reference compound]	–	–	+	dose at which catalepsy appears [2]: ≥ 20 mg/kg; cataleptic effect (in words) [2]: week cataleptic effect
CN1CCN(C2=Nc3ccccc3Sc3ccc(Cl)cc32)CC1 [Clothiapine, reference compound]	38.05	94.6	–	–
CN1CCN(C2=Nc3cccnc3Nc3ccc(F)cc32)CC1 [Example 13, 8-fluoro-6-(4-methylpiperazin-1-yl)-11H-pyrido(2,3-b)benzo-1,4-diazepine]	–	–	+	–
CN1CCN(C2=Nc3ccccc3[Se]c3ccccc32)CC1 [Example 19]	78.31	–	–	inhibition [1]: 26.7%
CN1CCN(C2=Nc3cnccc3Sc3ccccc32)CC1 [Example 18, 10-(4-methylpiperazin-1-yl)pyrido(4,3-b)benzo-1,4-thiazepine]	57.61	50.2	–	–
